Measured values: patent publication US12723063B2, “GIPR-agonist compounds” (Eli Lilly and Company, priority 2019, dated 2026)
*1 amine or outer side, *2 acyl side, *3 side chain or, on linkers, in order; H or OH if unused. Where a SMILES comes first, the peptide text is derived from it. Side-chain parts run from the residue outwards. [ ]: non-standard residue; d: D form. The star is where a group is joined. C20 diacid = O=C(O)CCCCCCCCCCCCCCCCCCC(=O)*; αMePhe(2-F) = C[C@](N)(Cc1ccccc1F)C(=O)O; γGlu = O=C(O)[C@H](CCC(=O)[*:2])N[*:1]; αMeF = C[C@](N)(Cc1ccccc1)C(=O)O; 4Pal = N[C@@H](Cc1ccncc1)C(=O)O; αMeL = CC(C)C[C@](C)(N)C(=O)O; AEEA = NCCOCCOCC(=O)O; Aib = CC(C)(N)C(=O)O

Target: T1, human GIPR (Homo sapiens, UniProt P48546)
T1 construct: expressed in transfected cells; crude membranes
T1 sequence (P48546 22-466): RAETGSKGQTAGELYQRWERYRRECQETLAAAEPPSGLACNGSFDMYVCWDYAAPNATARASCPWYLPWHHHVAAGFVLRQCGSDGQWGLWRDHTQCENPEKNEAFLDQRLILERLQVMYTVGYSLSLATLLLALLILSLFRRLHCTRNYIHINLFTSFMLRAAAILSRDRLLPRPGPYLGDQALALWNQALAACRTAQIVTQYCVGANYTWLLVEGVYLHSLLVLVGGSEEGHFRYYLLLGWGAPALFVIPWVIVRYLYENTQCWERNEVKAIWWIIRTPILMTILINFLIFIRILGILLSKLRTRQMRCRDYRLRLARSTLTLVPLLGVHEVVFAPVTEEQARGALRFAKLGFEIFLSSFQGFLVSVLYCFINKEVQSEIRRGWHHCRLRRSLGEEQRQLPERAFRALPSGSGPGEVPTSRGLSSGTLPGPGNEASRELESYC
Assay: [125I]-GIP binding, SPA with WGA beads, 0.1% bacitracin
Conditions: geometric mean, read-out: hGIPR Ki
How it was run: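 Ki values are geometric means (SEM, n independent days), derived from four-parameter nonlinear regression of IC50. Membranes came from hGIPR-expressing CHO cells.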

Compared with `CC[C@H](C)[C@H](NC(=O)[C@H](CC(C)C)NC(=O)[C@@H](NC(=O)CNC(=O)[C@H](CCC(=O)O)NC(=O)C(C)(C)NC(=O)[C@@H](N)Cc1ccc(O)cc1)[C@@H](C)O)C(=O)N[C@@H](CO)C(=O)N[C@@H](CC(=O)O)C(=O)N[C@@H](Cc1ccc(O)cc1)C(=O)N[C@@H](CO)C(=O)N[C@H](C(=O)N[C@@](C)(CC(C)C)C(=O)N[C@@H](CC(C)C)C(=O)N[C@@H](CC(=O)O)C(=O)N[C@@H](CCCCN)C(=O)N[C@@H](CCCCNC(=O)COCCOCCNC(=O)COCCOCCNC(=O)CC[C@H](NC(=O)CCCCCCCCCCCCCCCCCCC(=O)O)C(=O)O)C(=O)N[C@@H](Cc1c[nH]cn1)C(=O)N[C@@H](CCC(N)=O)C(=O)NC(C)(C)C(=O)N[C@@H](CCC(=O)O)C(=O)N[C@@H](Cc1ccccc1)C(=O)N[C@H](C(=O)N[C@@H](CCC(=O)O)C(=O)N[C@@H](Cc1ccc(O)cc1)C(=O)N[C@@H](CC(C)C)C(=O)N[C@@H](CC(C)C)C(=O)N[C@@H](CCC(=O)O)C(=O)N[C@H](C(=O)NCC(=O)N1CCC[C@H]1C(=O)N[C@@H](CO)C(=O)N[C@@H](CO)C(=O)NCC(=O)N[C@@H](C)C(=O)N1CCC[C@H]1C(=O)N1CCC[C@H]1C(=O)N1CCC[C@H]1C(=O)N[C@@H](CO)C(N)=O)[C@@H](C)O)C(C)C)[C@@H](C)CC` [Example 72] (H-Y[Aib]EGTLISDYSI[αMeL]LDKK([AEEA-AEEA-γGlu-C20 diacid])HQ[Aib]EFVEYLLETGPSSGAPPPS-NH2), `CC[C@H](C)[C@H](NC(=O)[C@H](Cc1ccccc1)NC(=O)[C@@H](NC(=O)CNC(=O)[C@H](CCC(=O)O)NC(=O)C(C)(C)NC(=O)[C@@H](N)Cc1ccc(O)cc1)[C@@H](C)O)C(=O)N[C@@H](CO)C(=O)N[C@@H](CC(=O)O)C(=O)N[C@@H](Cc1ccc(O)cc1)C(=O)N[C@@H](CO)C(=O)N[C@H](C(=O)N[C@@](C)(CC(C)C)C(=O)N[C@@H](CC(C)C)C(=O)N[C@@H](CC(=O)O)C(=O)N[C@@H](CCCCN)C(=O)N[C@@H](CCCCNC(=O)COCCOCCNC(=O)COCCOCCNC(=O)CC[C@H](NC(=O)CCCCCCCCCCCCCCCCCCC(=O)O)C(=O)O)C(=O)N[C@@H](Cc1c[nH]cn1)C(=O)N[C@@H](CCC(N)=O)C(=O)NC(C)(C)C(=O)N[C@@H](CC(=O)O)C(=O)N[C@@H](Cc1ccccc1)C(=O)N[C@H](C(=O)N[C@@H](CCC(=O)O)C(=O)N[C@@H](Cc1ccc(O)cc1)C(=O)N[C@@H](CC(C)C)C(=O)N[C@@H](CC(C)C)C(=O)N[C@@H](CCC(=O)O)C(=O)N[C@@H](C)C(=O)NCC(=O)N1CCC[C@H]1C(=O)N[C@@H](CO)C(=O)N[C@@H](CO)C(=O)NCC(=O)N[C@@H](C)C(=O)N1CCC[C@H]1C(=O)N1CCC[C@H]1C(=O)N1CCC[C@H]1C(=O)N[C@@H](CO)C(N)=O)C(C)C)[C@@H](C)CC` [Example 68] (H-Y[Aib]EGTFISDYSI[αMeL]LDKK([AEEA-AEEA-γGlu-C20 diacid])HQ[Aib]DFVEYLLEAGPSSGAPPPS-NH2) is 1.6-fold higher in Ki: 0.0594 nM for the first, 0.0948 nM for the second.

First: CC[C@H](C)[C@H](NC(=O)[C@H](CO)NC(=O)[C@H](Cc1ccc(O)cc1)NC(=O)[C@H](CC(=O)O)NC(=O)[C@H](CO)NC(=O)[C@@H](NC(=O)[C@](C)(Cc1ccccc1)NC(=O)[C@@H](NC(=O)CNC(=O)[C@H](CCC(=O)O)NC(=O)C(C)(C)NC(=O)[C@@H](N)Cc1ccc(O)cc1)[C@@H](C)O)[C@@H](C)CC)C(=O)N[C@@H](C)C(=O)N[C@@H](CC(C)C)C(=O)N[C@@H](CC(=O)O)C(=O)N[C@@H](CCCCN)C(=O)N[C@@H](CCCCNC(=O)COCCOCCNC(=O)COCCOCCNC(=O)CC[C@H](NC(=O)CCCCCCCCCCCCCCCCCCC(=O)O)C(=O)O)C(=O)N[C@@H](Cc1c[nH]cn1)C(=O)N[C@@H](CCC(N)=O)C(=O)NC(C)(C)C(=O)N[C@@H](CC(=O)O)C(=O)N[C@@H](Cc1ccccc1)C(=O)N[C@H](C(=O)N[C@@H](CCC(=O)O)C(=O)N[C@@H](Cc1ccncc1)C(=O)N[C@@H](CC(C)C)C(=O)N[C@@H](CC(C)C)C(=O)N[C@@H](CCC(=O)O)C(=O)NCC(=O)NCC(=O)N1CCC[C@H]1C(=O)N[C@@H](CO)C(=O)N[C@@H](CO)C(=O)NCC(=O)N[C@@H](C)C(=O)N1CCC[C@H]1C(=O)N1CCC[C@H]1C(=O)N1CCC[C@H]1C(=O)N[C@@H](CO)C(N)=O)C(C)C [Example 44] (H-Y[Aib]EGT[αMeF]ISDYSIALDKK([AEEA-AEEA-γGlu-C20 diacid])HQ[Aib]DFVE[4Pal]LLEGGPSSGAPPPS-NH2)
Second: CC[C@H](C)[C@H](NC(=O)[C@H](CO)NC(=O)[C@H](Cc1ccc(O)cc1)NC(=O)[C@H](CC(=O)O)NC(=O)[C@H](CO)NC(=O)[C@@H](NC(=O)[C@](C)(Cc1ccccc1)NC(=O)[C@@H](NC(=O)CNC(=O)[C@H](CCC(=O)O)NC(=O)C(C)(C)NC(=O)[C@@H](N)Cc1ccc(O)cc1)[C@@H](C)O)[C@@H](C)CC)C(=O)N[C@@H](C)C(=O)N[C@@H](CC(C)C)C(=O)N[C@@H](CC(=O)O)C(=O)N[C@@H](CCCCN)C(=O)N[C@@H](CCCCNC(=O)COCCOCCNC(=O)COCCOCCNC(=O)CC[C@H](NC(=O)CCCCCCCCCCCCCCCCCCC(=O)O)C(=O)O)C(=O)N[C@@H](Cc1c[nH]cn1)C(=O)N[C@@H](CCC(N)=O)C(=O)NC(C)(C)C(=O)N[C@@H](CC(=O)O)C(=O)N[C@@H](Cc1ccccc1)C(=O)N[C@H](C(=O)N[C@@H](CCC(=O)O)C(=O)N[C@@H](Cc1ccncc1)C(=O)N[C@@H](CC(C)C)C(=O)N[C@@H](CC(C)C)C(=O)N[C@@H](CCC(=O)O)C(=O)N[C@@H](C)C(=O)NCC(=O)N1CCC[C@H]1C(=O)N[C@@H](CO)C(=O)N[C@@H](CO)C(=O)NCC(=O)N[C@@H](C)C(=O)N1CCC[C@H]1C(=O)N1CCC[C@H]1C(=O)N1CCC[C@H]1C(=O)N[C@@H](CO)C(N)=O)C(C)C [Example 43] (H-Y[Aib]EGT[αMeF]ISDYSIALDKK([AEEA-AEEA-γGlu-C20 diacid])HQ[Aib]DFVE[4Pal]LLEAGPSSGAPPPS-NH2)
The Ki of the first is 1.6-fold higher: 0.059 nM for the first, 0.0366 nM for the second.

`CC[C@H](C)[C@H](NC(=O)[C@H](CO)NC(=O)[C@H](Cc1ccc(O)cc1)NC(=O)[C@H](CC(=O)O)NC(=O)[C@H](CO)NC(=O)[C@@H](NC(=O)[C@](C)(Cc1ccccc1F)NC(=O)[C@@H](NC(=O)CNC(=O)[C@H](CCC(=O)O)NC(=O)C(C)(C)NC(=O)[C@@H](N)Cc1ccc(O)cc1)[C@@H](C)O)[C@@H](C)CC)C(=O)N[C@@H](C)C(=O)N[C@@H](CC(C)C)C(=O)N[C@@H](CC(=O)O)C(=O)N[C@@H](CCCCN)C(=O)N[C@@H](CCCCNC(=O)COCCOCCNC(=O)COCCOCCNC(=O)CC[C@H](NC(=O)CCCCCCCCCCCCCCCCCCC(=O)O)C(=O)O)C(=O)N[C@@H](Cc1c[nH]cn1)C(=O)N[C@@H](CCC(N)=O)C(=O)NC(C)(C)C(=O)N[C@@H](CC(=O)O)C(=O)N[C@@H](Cc1ccccc1)C(=O)N[C@H](C(=O)N[C@@H](CCC(=O)O)C(=O)N[C@@H](Cc1ccc(O)cc1)C(=O)N[C@@H](CC(C)C)C(=O)N[C@@H](CC(C)C)C(=O)N[C@@H](CCC(=O)O)C(=O)NCC(=O)NCC(=O)N1CCC[C@H]1C(=O)N[C@@H](CO)C(=O)N[C@@H](CO)C(=O)NCC(=O)N[C@@H](C)C(=O)N1CCC[C@H]1C(=O)N1CCC[C@H]1C(=O)N1CCC[C@H]1C(=O)N[C@@H](CO)C(N)=O)C(C)C` [Example 37] (H-Y[Aib]EGT[αMePhe(2-F)]ISDYSIALDKK([AEEA-AEEA-γGlu-C20 diacid])HQ[Aib]DFVEYLLEGGPSSGAPPPS-NH2) was tested, and the Ki was 0.026 nM.
